Assay results taken from patent US6337348B1, “Oxy-vanadium (iv) complexes having spermicidal activity” (Parker Hughes Institute, priority 1998, dated 2002).

How the values were obtained:
human sperm [1] = test: Sperm immobilization assay (SIA), motility by CASA; assay type: cell-based; conditions: read-out: EC50 (concentration that decreases the proportion of motile sperm by 50%); 3 hours incubation at 37° C., BWW-0.3% BSA, serial 2-fold dilutions 250 μM to 1.9 μM, mean of two experiments
Procedure: To evaluate the spermicidal effects of complexes of oxovanadium (IV), VO(phen), VO(phen)2, VO(Me2—phen), VO(Me2—phen)2, VO(Cl—phen), VO(Cl—phen)2], VO(bipy), VO(bipy)2, VO(Me2—bipy), VO(Me2—bipy)2, and VO(Br,OH—acph)2, a highly motile fraction of pooled donor sperm (N=5) was prepared by discontinuous (90−45%). Percoll gradient (Conception Technologies, San Diego, Calif.) centrifugation and the “swim-up” method as described previously (Aitken et al., 1989, Biol. Reprod. 40:183-197). All donor specimens were obtained after informed consent and in compliance with the guidelines of the Hughes Institutional Review Board. Motile sperm (≳10×10^6/ml) were suspended in 1 ml of Biggers, Whitten, and Whittingham's medium (BWW) containing 0.3% BSA (fraction V; Sigma Chemical Co., St. Louis, Mo.) in the presence and absence of serial 2-fold dilutions of test substance (250 μM−1.9 μM) in 0.25% dimethyl sulfoxide (DMSO). For each experiment, fresh stock solutions (100 mM) of vanadium compounds were prepared in DMSO. A corresponding volume of DMSO (0.25%) was added to control sperm suspension. After 3 hours of incubation at 37° C., the percentage of motile sperm was evaluated by computer-assisted sperm motion analysis (CASA) as described previously (Aitken et al., 1989, Supra). The percentages of motilities were compared with those of sham-treated control suspensions of motile sperm.
For CASA, 4 μl each of sperm suspension was loaded into two 20 μm Microcell chambers placed onto a counting chamber at 37° C. At least 5-8 fields per chamber were scanned for analysis using a Hamilton Thorne Integrated Visual Optical System (IVOS) version 10 instrument (Hamilton Thorne Research Inc., Danvers, Mass.). Each field was recorded for 30 seconds. The Hamilton Thorne computer calibrations were set at 30 frames at a frame rate of 30 images/seconds. Other settings were as follows: minimum contrast 8; minimum size 6; low-size gate, 1.0; high-size gate,2.9; low-intensity gate, 0.6; high-intensity gate, 1.4; phase-contrast illumination; low path velocity at 10 μm/seconds and threshold straightness at 80%; magnification factor, 1.95. The performance of the analyzer was periodically checked using the playback function.
Results for the various numerical sperm functional parameters are presented as mean±standard deviation (SD) values. Comparison between oxovanadium (IV) complex-treated and control sperm relative to sperm motility parameters and apoptosis were performed using paired, two-tailed Student's T-test. A p value of <0.05 was considered significant.

human sperm [2] = test: Flow cytometric quantitation of sperm acrosome reaction (anti-CD46 mAb binding); assay type: cell-based; conditions: tested at 100 μM, 3 hours, 37° C., mean of two experiments
Procedure: In experiments designed to assess the comparative effects of oxovanadium (IV) complexes and N-9 on sperm acrosome reaction, motile fractions of sperm (10^7/ml) prepared from a single donor were incubated in 1 ml of BWW−0.3% BSA in the presence of 100 μM each of the vanadocene complexes, VO(phen), VO(phen)2, VO(Me2—phen), VO(Me2—phen)2, VO(Cl—phen), VO(Cl—phen)2, VO(bipy), VO(bipy)2, VO(Me2—bipy), VO(Me2—bipy)2, and VO(Br,OH—acph)2 in 0.1% DMSO, N-9, or DMSO (0.1%) alone at 37° C. After 3 hours, 5 μg/ml of purified, phycoerythrin (PE)-conjugated murine anti-CD46 monoclonal antibody (mAb; clone 122-2; Research Diagnostics, Flanders, N.J.) was added and the sperm suspensions incubated for an additional 30 minutes. The suspensions was washed in Tyrode's salt solution (Sigma) containing 1% BSA (1% TBSA) and the percentage of CD46-positive sperm were analyzed by flow cytometry using a FACS Vantage flow cytometer (Becton Dickinson, Mountain View, Calif.), as described previously (DeCruz et al., 1996, Biol Reprod. 54:1217-1228; DeCruz et al., 1992, Fertil. Seril., 58:633-636). Two separate experiments were performed to quantitate acrosomal loss following exposure of sperm to oxovanadium (IV) complexes.

nonoxynol-9 [N-9, reference compound]
EC50 (human sperm [1]): 78.5 µM | Anti-CD46 positive sperm (%) (human sperm [2]): 86%
